Source: PMC11744766, “Dual Inhibitors of SARS-CoV-2 3CL Protease and Human Cathepsin L Containing Glutamine Isosteres Are Anti-CoV-2 Agents” (Journal of the American Chemical Society, 2025)
Several values for one entry are separate records, joined by “and”; a condition that tells them apart may be missing. Equal entries are not always repeated. Where two headings read alike, the source gives them in different places.

Columns and labels:
[1] = molecular target: T1, human cathepsin L (Homo sapiens, UniProt P07711); conditions: read-out: Ki (hCatL), cited from earlier work
T1 construct: His-tag (only implied by the Ni-NTA capture and the pET-28a(+) vector); host or cells: E. coli C43(DE3)

[2] = molecular target: T2, SARS-CoV-2 3CL protease (3CL-PR) (Severe acute respiratory syndrome coronavirus 2, UniProt P0DTC1); conditions: cited from earlier work; for Ki: read-out: Ki (3CL-PR)
[3] = molecular target: T1, human cathepsin L; assay: Kinetic assay of human cathepsin L inhibition (Z-LR-AMC / Z-FR-AMC fluorescence); assay type: biochemical; conditions: for mode of inhibition of hCatL: inhibitor vs variable substrate
[4] = molecular target: T2, SARS-CoV-2 3CL protease (3CL-PR); assay: biochemical; assay type: biochemical
[5] = molecular target: T3, human cathepsin B (Homo sapiens, UniProt P07858); assay: Kinetic assay of human cathepsin B inhibition (Z-LR-AMC fluorescence); assay type: biochemical
T3 construct: purchased Millipore Sigma or R&D Systems

[6] = system: SARS-CoV-2 (USA_WA1/2020 isolate); assay: Vero E6-based microneutralization assay of SARS-CoV-2 infection (CPE); assay type: cell-based; conditions: for fold less potent in inhibiting SARS-CoV-2 infection than Nirmatrelvir and PF-835231: ratio of EC50
[7] = 25 °C, pH 5.5, time-dependent inhibitors at t ∼ 30 min (steady-state), read-out: Ki * (nM) hCat L
[8] = 25 °C, pH 7.5, time-dependent inhibitors at t ∼ 30 min (steady-state), read-out: Ki * (nM) 3CL-PR
[9] = 25 °C, pH 5.5, time-dependent inhibitors at t ∼ 30 min (steady-state), read-out: Ki * (nM) hCat B
[10] = initial rates, t = 0–3 min, read-out: Ki (hCatB) from initial rates vi/v0
[11] = Severe acute respiratory syndrome coronavirus 2, Vero C1008, 72 h, Vero E6 cells, 2 μM CP-100356, CPE after 3 days, read-out: Anti-SARS-CoV-2 Activity EC50

T1 sequence (P07711 114-333): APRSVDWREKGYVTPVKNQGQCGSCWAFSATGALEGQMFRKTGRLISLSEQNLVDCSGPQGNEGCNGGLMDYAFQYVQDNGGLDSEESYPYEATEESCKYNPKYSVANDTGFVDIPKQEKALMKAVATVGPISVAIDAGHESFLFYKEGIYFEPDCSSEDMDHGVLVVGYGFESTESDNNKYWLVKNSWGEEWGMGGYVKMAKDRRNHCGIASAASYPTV

## CC(C)C[C@H](NC(=O)c1cc2ccccc2[nH]1)C(=O)N[C@H](C=O)C[C@@H]1CCNC1=O [AC1115, reference compound]
[1]; AC1115
  Ki: ~0.06 nM
[2]; AC1115
  Ki: 2.4 nM

## COc1cccc2[nH]c(C(=O)NC(CC(C)C)C(=O)NC(C=O)Cc3ccc[nH]c3=O)cc12 (centres unmarked) [Compound 6]
[3]; 4-methoxy group on indole
  fold improvement in inhibition of hCatL, 6 over 4: 30 fold
[3]; [7]
  Ki: 0.6 nM and 0.55 nM
[3]; initial rates, t = 0–180 s, read-out: Ki (hCatL) from initial rates vi/v0
  Ki: 2.3 ± 0.4 nM
[4]
  fold more potent vs 3CL-PR, 6 compared to 8: 50 fold
[4]; 4-methoxy group on indole
  fold improvement in inhibition of 3CL-PR, 6 over 4: 15 fold
[4]; [8]
  Ki: 2.6 ± 0.4 nM
[4]; initial rates, t = 0–180 s, read-out: Ki (3CL-Pro) from initial rates vi/v0
  Ki: 20 ± 2 nM
[5]; [9]
  Ki: 100 ± 2 nM
[5]; [10]
  Ki: 65 ± 3 nM
[6]; [11]
  EC50: 1.25 µM
[6]; Vero E6 cells
  fold less potent in inhibiting SARS-CoV-2 infection than Nirmatrelvir and PF-835231: five-fold less potent
[6]; not evaluated under the same conditions
  fold less anti-CoV-2 activity in comparison to AC1115: 4 fold

## CN1CCN(C(=O)NC(Cc2ccccc2)C(=O)NC2Cc3cccnc3OC2O)CC1 (centres unmarked) [Compound 2]
[1]; compounds 1 and 2
  Ki: 1.03 nM and 1 nM
[2]; compound 2
  Ki: 250 nM

## O=CC(Cc1ccc[nH]c1=O)NC(=O)C(CC1CCCCC1)NC(=O)c1cc2ccccc2[nH]1 (centres unmarked) [Compound 5]
[3]; [7]
  Ki: 9 ± 2 nM
[3]; CHA for Leu at P2
  fold improvement in inhibition of hCatL, 5 over 4: 2 fold
[3]
  mode of inhibition of hCatL: competitive inhibitor
[4]; [8]
  Ki: 27 ± 5 nM
[4]; CHA for Leu at P2
  fold improvement in inhibition of 3CL-PR, 5 over 4: 1.5 fold
[5]; [9]
  Ki: 101 ± 3 nM
[6]; [11]
  EC50: 1.9 µM
[6]; Vero E6 cells
  fold less potent in inhibiting SARS-CoV-2 infection than Nirmatrelvir and PF-835231: eight-fold less active

## CC(C)C[C@H](NC(=O)OCc1ccccc1)C(=O)N[C@@H](CC1CCCCC1)C(=O)N[C@H](C=O)Cc1ccc[nH]c1=O [Compound 3]
[3]; [7]
  Ki: 8 ± 1 nM
[3]
  mode of inhibition of hCatL: competitive inhibitor
[4]; [8]
  Ki: 9 ± 2 nM
[4]; competitive pattern at < 10 min incubation (Figure S1B), read-out: Ki (3CL-PR) before longer incubation
  Ki: 16 nM
[4]; inhibitor vs variable substrate
  mode of inhibition of 3CL-PR: competitive inhibitor
[4]; ratio of Ki
  fold less potent vs 3CL-PR than Nirmatrelvir: 3 fold
[5]; [9]
  Ki: 280 ± 5 nM
[5]; [10]
  Ki: 290 nM
[6]; [11]
  EC50: 0.47 µM
[6]; Vero E6 cells
  fold less potent in inhibiting SARS-CoV-2 infection than Nirmatrelvir and PF-835231: 2 fold

## COc1cccc2[nH]c(C(=O)N[C@@H](CC(C)C)C(=O)N[C@H](C=O)Cc3cocn3)cc12 [Compound 8]
[3]; [7]
  Ki: 1.1 ± 0.1 nM
[4]; [8]
  Ki: 124 ± 5 nM
[5]; [9]
  Ki: 189 ± 9 nM
[6]; Severe acute respiratory syndrome coronavirus 2, Vero C1008, 72 h, read-out: Anti-SARS-CoV-2 Activity EC50 (μM), Vero E6 cells, 2 μM CP-100356, CPE after 3 days
  EC50: 0.62 µM
[6]; Vero E6 cells, 2 μM CP-100356, CPE after 3 days, read-out: Anti-SARS-CoV-2 Activity EC50
  EC50: 0.625 µM

## CN1CCN(C(=O)N[C@@H](Cc2ccccc2)C(=O)N[C@H](/C=C/S(=O)(=O)c2ccccc2)CCc2ccccc2)CC1 [Compound K11777, reference compound]
[2]; K11777
  Ki: > 10000 nM

## CC(C)CC(NC(=O)c1cc2ccccc2[nH]1)C(=O)NC(C=O)Cc1ccc[nH]c1=O (centres unmarked) [Compound 4]
[3]; [7]
  Ki: 17 ± 1 nM
[4]; [8]
  Ki: 38 ± 4 nM
[5]; [9]
  Ki: 210 ± 20 nM
[6]; [11]
  EC50: 15 µM

## CC(C)(C)[C@H](NC(=O)C(F)(F)F)C(=O)N1C[C@H]2[C@@H]([C@H]1C(=O)N[C@H](C#N)C[C@@H]1CCNC1=O)C2(C)C [Nirmatrelvir, reference compound]
[6]; [11]
  EC50: 0.23 µM

## CN1CCN(C(=O)NC(Cc2ccccc2)C(=O)NC2Cc3ccccc3OC2O)CC1 (centres unmarked) [Compound 1]
[2]; compound 1
  inhibition of 3CL-PR: did not inhibit
  Ki: > 10000 nM

## COc1cccc2[nH]c(C(=O)N[C@@H](CC(C)C)C(=O)N[C@@H](C[C@@H]3CCNC3=O)C(=O)CO)cc12 [PF-835231, reference compound]
[4]; [8]
  Ki: 0.23 ± 0.09 nM
[4]; ratio of Ki
  fold more potent than Nirmatrelvir vs 3CL-PR: more than 10 fold
[6]; [11]
  EC50: 0.23 µM
